From patent publication US9539298B2, “Lissencephaly therapeutic agent” (OSAKA CITY UNIVERSITY, priority 2010, dated 2017)

Experiments:
[1] = test system: nerve cells from cerebellums of FVB mice; assay: Analysis of toxicity of calpain inhibitors on cultured cerebellar nerve cells; type: cell-based, mouse
Experimental: The cerebellums were removed from 4- to 5-day-old FVB mice (15 mice). In a Ca^2+-free Hank's Balanced Salt Solution (CF-HBSS; Ca^2+, Mg^2+-free Hank's Balanced Salt Solution (CMF-HBBS, Sigma) containing 5 mM magnesium chloride (MgCl2, Wako) and 4 mg/mL glucose (Wako)), the meninges were removed and cut into pieces. After the cerebellum fragments were washed with CF-HBSS, the fragments were allowed to stand for 20 minutes at 37° C. in CF-HBSS containing 0.025% trypsin (Invitrogen) and 6.25 μg/mL deoxyribonuclease (DNase, Sigma), and then centrifuged. The resulting tissues were washed with 10% HS/BME (DNase Medium; obtained by adding 5 mM MgCl2 and 25 μg/mL DNase to Basal Medium Eagle (BME, Invitrogen) containing 10% Horse Serum (HS, Invitrogen)) and centrifuged. DNase medium was added to the cells, and the cells were transferred to a 24-well plate (Nunc). The cells were kept still for 30 minutes at 37′C under an atmospheric environment of 5% CO2, thereby suspending the cells. The cell suspension was isolated, and then washed with 10% HS/BME. The suspension was transferred again to a 24-well plate to be cultured for 16 hours at 37° C. under an atmospheric environment of 5% CO2. The cells were collected to BME containing 1% Bovine Serum Albumin (BSA, Sigma) and 0.5% N2 supplement (Invitrogen), and the cell suspension was seeded on a 35 mm glass base dish (Iwaki) coated beforehand with poly-L-lysine (Sigma) and laminin (Sigma) in an amount of […]. The cells were cultured for 8 hours at 37° C. under an atmospheric environment of 5% CO2. The cultured nerve cells were used as test nerve cells.
A culture solution (10% HS/BME) containing SNJ-1945, E64d, or ALLN was prepared in the following manner. SNJ-1945 dissolved in dimethyl sulfoxide (Sigma, D-5879) was mixed with a culture solution so that the final concentration became 200 μM, and was kept still for an hour at 37° C., thereby completely dissolving SNJ-1945 in the culture medium. ALLN and E64d were also dissolved in culture media in the same manner, except that ALLN and E64d were added to the culture media to final concentrations of 50 μM and 100 μM, respectively. The culture media in which the components were dissolved were added to the test nerve cells prepared above in an amount of 2 ml/well, and the cells were cultured for 16 hours. As a control, the same culture was conducted using a culture medium containing the same amount of dimethyl sulfoxide (Sigma, D-5879). After culture, the cells were observed using an inverted microscope (TCS FP5S, Leica). A 20× objective lens was used. Images were taken using dedicated software (LAS AF, Leica) under the condition of 512×512 pixels.

[2] = test system: LIS1 heterozygous mice (lissencephaly model mice); assay: Behavior analysis: Gait Analysis; type: in vivo, mouse; conditions: 200 μg/g per day oral; for Swing-to-Stance Ratio: FIG. 13
Experimental: To conduct a behavior analysis experiment, wild-type mice and Lis1 (^+/−) heterozygous mice were divided into five groups (C group, M1 group, M2 group, M3 group, and M4 group). The details regarding the mice in each group are described below. CE-2 (CLEA Japan, Inc.) was used as mice feed. The wild-type mice and heterozygous mice used for this experiment were prepared in the same method as described in the above section “Preparation of LIS1 gene hetero-deficient mice (LIS1 heterozygous mice).”
M2 group: LIS1 heterozygous mice prepared as follows. SNJ-1945 was dissolved in dimethyl sulfoxide (Sigma, D-5879) at a concentration of 100 mg/ml, and administered to pregnant mice from Day 9.5 of the embryonic period (E9.5) in an amount of 200 μg per gram of maternal body weight per day. The administration was performed by adding SNJ-1945 to mice feed. During the postnatal period, the administration was continued in the same manner as in M3 group below. M3 group: LIS1 heterozygous mice prepared as follows. […]
By adding SNJ-1945 to the mice feed (CE-2, CLEA Japan, Inc.), SNJ-1945 was continuously administered to the mice so that the administration amount became 200 μg per gram of body weight per day through oral administration. For a behavior analysis experiment, 12 to 16 mice were grouped to be subjected to preliminary breeding in the behavior experiment facility for 1 to 2 weeks; thereafter, the behavior of the mice was analyzed at an age of about 9 to 12 weeks. After the behavior analysis experiment, a gene type was determined for all mice.
Statistical processing of experiment data of mice behavior analysis was conducted using Stat View (SAS institute) statistics software. ANOVA assay (analysis of variance between multiple groups) was conducted for all five groups, and a group with a risk rate (p value) of less than 5% (p<0.05) was determined to have a significant difference. […]

COCCOCCOC(=O)N[C@@H](CC(C)C)C(=O)N[C@@H](Cc1ccccc1)C(=O)C(=O)NC1CC1 [compound 17, ((1S)-1-((((1S)-1-Benzyl-2,3-dioxo-3-(cyclopropylamino)propyl)amino)carbonyl)-3-methylbutyl)carbamic acid 5-methoxy-3-oxapentyl ester]
neurite elongation and cell migration (cytotoxicity) ([1]; 200 μM, 16 hours, FIG. 24): normal neurite elongation and cell migration were also observed, and no significant difference from the control was observed | cell toxicity ([1]; compared with other calpain inhibitors): did not show any cell toxicity even in a high concentration | % Swing ([2]; M2, M3 and M4 groups, FIG. 12): there was no significant difference compared with C group | Swing-to-Stance Ratio ([2]; M2 group (administration from E9.5)): recovered to a level at which there was no significant difference with C group | Swing-to-Stance Ratio ([2]; M3 and M4 groups (administration from birth / postnatal Day 10)): closer to 1 than M1 group
